How the values were obtained:
[1] = system: 9D cells (EBV-transformed human peripheral blood B cells); test: Apoptosis by FACS (PI / FITC-annexin V), 9D cells; assay type: cell-based; conditions: 24 hours, CH11 1 μg/ml
Procedure: (§1) The effects of the Apo-2 ligand on the 9D cells, as well as on Raji cells (human Burkitt's lymphoma B cell line, ATCC CCL 86) and Jurkat cells (human acute T cell leukemia cell line, ATCC TIB 152) were further analyzed by FACS. The FACS analysis was conducted, using established criteria for apoptotic cell death, namely, the relation of fluorescence staining of the cells with two markers: (a) propidium iodide (“PI”) dye, which stains apoptotic but not live cells, and (b) a fluorescent derivative of the protein, annexin V, which binds to the exposed phosphatidylserine found on the surface of apoptotic cells, but not on live cells [Darzynkiewicz et al., Methods in Cell Biol., 41:15-38 (1994); Fadok et al., J. Immunol., 148:2207-2214 (1992); Koopman et al., Blood, 84:1415-1420 (1994)].
(§2) The 9D cells (FIG. 2B), Raji cells (FIG. 2C), and Jurkat cells (FIG. 2D) were incubated (1×10^6 cells/well) for 24 hours with a media control (left panels), Apo-2 ligand (3 μg/ml, prepared as described in Example 3) (center panels), or […], CH11 (1 μg/ml) (right panels). The cells were then washed, stained with PI and with […] (FITC)-conjugated annexin V (purchased from Brand Applications) and analyzed by flow cytometry. […]

[2] = system: Raji cells (human Burkitt's lymphoma B cell line); test: Apoptosis by FACS (PI / FITC-annexin V), Raji cells; assay type: cell-based; conditions: 24 hours, CH11 1 μg/ml
Procedure: as §1, §2

[3] = system: Jurkat cells (human acute T cell leukemia cell line); test: Apoptosis by FACS (PI / FITC-annexin V), Jurkat cells; assay type: cell-based; conditions: 24 hours, CH11 1 μg/ml
Procedure: as §1, §2

[4] = system: HeLa (human cervical carcinoma); test: Apoptosis by FACS, HeLa cells; assay type: cell-based
Procedure: as §2, with “cytometry. Cells negative for both PI and annexin V staining (quadrant 3) represent live cells; PI-negative, annexin V-positive staining cells (quadrant 4) represent early apoptotic cells; PI-positive, annexin V-positive staining cells (quadrant 2) represent primarily cells in late stages of apoptosis.” for “cytometry.”
(§3) In the assay, 1×10^6 cells of each cell line were incubated for 24 hours with a media control, Apo-2 ligand (3 μg/ml, prepared as described in Example 3), or anti-Apo-1 monoclonal antibody, CH11 (1 μg/ml). Following the incubation, apoptosis was measured by FACS analysis, as described in Example 4.

[5] = system: MCF7 (human breast carcinoma); test: Apoptosis by FACS, MCF7 cells; assay type: cell-based
Procedure: as §2, with “cytometry. Cells negative for both PI and annexin V staining (quadrant 3) represent live cells; PI-negative, annexin V-positive staining cells (quadrant 4) represent early apoptotic cells; PI-positive, annexin V-positive staining cells (quadrant 2) represent primarily cells in late stages of apoptosis.” for “cytometry.”
as §3

[6] = system: U-937 (human hystiocytic lymphoma); test: Apoptosis by FACS, U-937 cells; assay type: cell-based
Procedure: as §2, with “cytometry. Cells negative for both PI and annexin V staining (quadrant 3) represent live cells; PI-negative, annexin V-positive staining cells (quadrant 4) represent early apoptotic cells; PI-positive, annexin V-positive staining cells (quadrant 2) represent primarily cells in late stages of apoptosis.” for “cytometry.”
as §3

[7] = system: A549 (human lung carcinoma); test: Apoptosis by FACS, A549 cells; assay type: cell-based
Procedure: as §2, with “cytometry. Cells negative for both PI and annexin V staining (quadrant 3) represent live cells; PI-negative, annexin V-positive staining cells (quadrant 4) represent early apoptotic cells; PI-positive, annexin V-positive staining cells (quadrant 2) represent primarily cells in late stages of apoptosis.” for “cytometry.”
as §3

[8] = system: ME-180 (human cervical carcinoma); test: Apoptosis by FACS, ME-180 cells; assay type: cell-based
Procedure: as §2, with “cytometry. Cells negative for both PI and annexin V staining (quadrant 3) represent live cells; PI-negative, annexin V-positive staining cells (quadrant 4) represent early apoptotic cells; PI-positive, annexin V-positive staining cells (quadrant 2) represent primarily cells in late stages of apoptosis.” for “cytometry.”
as §3

[9] = system: 293 (adenovirus-transformed human embryonic kidney cells); test: Apoptosis by FACS, 293 cells; assay type: cell-based
Procedure: as §2, with “cytometry. Cells negative for both PI and annexin V staining (quadrant 3) represent live cells; PI-negative, annexin V-positive staining cells (quadrant 4) represent early apoptotic cells; PI-positive, annexin V-positive staining cells (quadrant 2) represent primarily cells in late stages of apoptosis.” for “cytometry.”
as §3

[10] = system: peripheral blood B lymphocytes; test: Apoptosis by FACS, peripheral blood B cells; assay type: cell-based, human; conditions: for % apoptotic cells: 3 days, Apo-2L 3 μg/ml, mean ±SE
Procedure: Peripheral blood mononuclear cells (“PBMC”) were isolated from the blood of human donors by Ficoll density gradient centrifugation using Lymphocyte Separation Medium (LSM®, Organon Teknika). An isolated population of T cells was prepared from the PBMC by removal of B cells through surface Ig binding to an anti-Ig column and removal of monocytes through Fc receptor binding to an Ig column (R & D Systems). An isolated population of B cells was prepared from the PBMC by complement-mediated elimination of T cells reacted with the anti-CD3 antibody produced by the OKT3 myeloma (ATCC, CRL 8001) and of monocytes reacted with a monocyte-specific antibody produced by the 4F2C13 hybridoma (ATCC, HB 22). Additional monocyte removal was accomplished by adherence to plastic.
The freshly isolated peripheral blood B or T cells (1×10^6 cells/well) were cultured for 3 days in the presence of a media control or Apo-2 ligand (3 μg/ml, prepared as described in Example 3). For activation, B cells were treated simultaneously with lipopolysaccharide ([…], 1 μg/ml), and T cells were treated with phorbol myristate acetate (“PMA”, 10 ng/ml) plus ionomycin (1 μg/ml) (Sigma). For interleukin-2 (“IL-2”) pretreatment, T cells were cultured for 3-5 days in the presence of IL-2 (50 U/ml) (Genzyme) before exposure to Apo-2 ligand. Apoptosis was determined using FACS analysis essentially as described above in Example 4. However, B cells were gated by anti-CD19/CD20 antibodies (Jackson Immunoresearch), and T cells were gated by anti-CD4/CD8 antibodies (Jackson Immunoresearch). The results are shown in Table 2 below, representing means ±SE of independent experiments [B lymphocytes—9 experiments; T lymphocytes—8 experiments; T lymphocytes plus IL-2-5 experiments], in which 50,000 cells were analyzed per data point. Statistical analysis was performed using the student t-test. In Table 2, a=p<0.05 and b=p<0.02 relative to the respective control.

[11] = system: peripheral blood T lymphocytes; test: Apoptosis by FACS, peripheral blood T cells; assay type: cell-based, human; conditions: for % apoptotic cells: Apo-2L 3 μg/ml, mean ±SE
Jurkat cells = test: Internucleosomal DNA fragmentation, Jurkat cells; assay type: cell-based, human; conditions: 6 hours, Apo-2 ligand 3 μg/ml
Procedure: (§4) The activation of internucleosomal DNA fragmentation by Apo-2 ligand was also analyzed. Jurkat cells (left lanes) and 9D cells (right lanes) were incubated (2×10^6 cells/well) for 6 hours with a media control or Apo-2 ligand (3 μg/ml, prepared as described in Example 3), The DNA was then extracted from the cells and labeled with ^32P-ddATP using terminal transferase. The labeled DNA samples were subjected to electrophoresis on 2% agarose gels and later analyzed by autoradiography [Moore et al., Cytotechnology, 17:1-11 (1995)]. […] Such DNA fragmentation is characteristic of apoptosis [Cohen, Advances in Immunol., 50:55-85 (1991)].

9D cells [12] = test: Internucleosomal DNA fragmentation, 9D cells; assay type: cell-based, human; conditions: 6 hours, Apo-2 ligand 3 μg/ml
Procedure: as §4

9D cells [13] = test: Time course and dose-dependence of cell death (dead/live counts, hemocytometer), 9D cells; assay type: cell-based, human
Procedure: To examine the time-course of the Apo-2 ligand apoptotic activity, 9D cells were incubated in microtiter dishes (5×10^4 cells/well) with a media control or Apo-2 ligand (3 μg/ml, prepared as described in Example 3) for a period of time ranging from 0 hours to 50 hours. Following the incubation, the numbers of dead and live cells were determined by microscopic examination using a hemocytometer.
To determine dose-dependency of Apo-2 ligand-induced cell death, 9D cells were incubated (5×10^4 cells/well) for 24 hours with serial dilutions of a media control or Apo-2 ligand (prepared as described in Example 3). The numbers of dead and live cells following the incubation were determined as described above. The results are illustrated in FIG. 3B. Specific apoptosis was determined by subtracting the % apoptosis in the control from % apoptosis in Apo-2 ligand treated cells. Half-maximal activation of apoptosis occurred at approximately 0.1 μg/ml (approximately 1 nM), and maximal induction occurred at about 1 to about 3 μg/ml (approximately 10 to 30 nM).

[14] = Apo-2 ligand as compared to CH11 anti-Apo-1 antibody

Apo-2L: purified, soluble recombinant human Apo-2 ligand: His10-tagged residues 114-281 of SEQ ID NO:1, expressed in baculovirus-infected Sf9 cells (Example 3)
% apoptotic cells ([1]; Apo-2L 3 μg/ml, control 22.5): 92.4%
induction of apoptosis (annexin V binding, PI uptake), in words ([1]; Apo-2 ligand 3 μg/ml): induced apoptosis
% apoptotic cells ([2]; Apo-2L 3 μg/ml, control 35.9): 73.4%
induction of apoptosis (annexin V binding, PI uptake), in words ([2]; Apo-2 ligand 3 μg/ml): induced a similar response
% apoptotic cells ([3]; Apo-2L 3 μg/ml, control 5.9): 77.0%
induction of apoptosis (annexin V binding, PI uptake), in words ([3]; Apo-2 ligand 3 μg/ml): induced a similar response
% apoptotic cells ([4]; 24 hours, Apo-2L 3 μg/ml, CH11 1 μg/ml, control 5.3): 18.6%
sensitivity to induction of apoptosis [4, 14]: equally sensitive
% apoptotic cells ([5]; 24 hours, Apo-2L 3 μg/ml, CH11 1 μg/ml, control 39.9): 47.3%
sensitivity to induction of apoptosis [5, 14]: equally sensitive
% apoptotic cells ([6]; 24 hours, Apo-2L 3 μg/ml, CH11 1 μg/ml, control 3.6): 62.3%
sensitivity to induction of apoptosis [6, 14]: markedly more sensitive
% apoptotic cells ([7]; 24 hours, Apo-2L 3 μg/ml, CH11 1 μg/ml, control 16.5): 74.6%
sensitivity to induction of apoptosis [7, 14]: markedly more sensitive
sensitivity to induction of apoptosis [8]: quite sensitive
% apoptotic cells ([8]; 24 hours, Apo-2L 3 μg/ml, CH11 1 μg/ml, control 8.6): 80.7%
sensitivity to induction of apoptosis [9]: resistant
% apoptotic cells ([9]; 24 hours, Apo-2L 3 μg/ml, CH11 1 μg/ml, control 12.3): 12.2%
induction of apoptosis, in words ([10]; B cells activated by LPS): induced significant apoptosis
% apoptotic cells ([10]; B lymphocytes + LPS 1 μg/ml, control 44.8 ± 2.8): 55.9%
% apoptotic cells ([10]; B lymphocytes, no treatment, 9 experiments, control 40.1 ± 4.1): 53.2%
induction of apoptosis, in words ([10]; unstimulated B cells): induced significant apoptosis
induction of apoptosis, in words ([11]; T cells activated with PMA and ionomycin): induced significant apoptosis
% apoptotic cells ([11]; T lymphocytes + PMA 10 ng/ml / ionomycin 1 μg/ml, 3 days, control 40.3 ± 4.4): 54.2%
% apoptotic cells ([11]; T lymphocytes, IL-2 (50 U/ml, 3-5 days) pretreatment, 5 experiments, control 13.7 ± 1.2): 34.5%
% apoptotic cells ([11]; T lymphocytes, no treatment, 3 days, 8 experiments, control 6.3 ± 0.6): 8.2 ± 0.8%
sensitization to Apo-2 ligand-induced death, in words ([11]; peripheral T cells pretreated with IL-2): did sensitize
internucleosomal DNA fragmentation (Jurkat cells): induced internucleosomal DNA fragmentation
internucleosomal DNA fragmentation (9D cells [12]): induced internucleosomal DNA fragmentation
half-maximal activation of apoptosis (9D cells [13]; 24 hours, specific apoptosis (control subtracted)): approximately 0.1 μg/ml
EC50 (9D cells [13]; 24 hours, specific apoptosis (control subtracted), read-out: half-maximal activation of apoptosis): ~1 nM
time to maximal levels of cell death (9D cells [13]; Apo-2 ligand 3 μg/ml, 0 to 50 hours): ≤ 24 h

Reference: patent US6746668B2, “Apo-2 ligand” (Genentech, Inc., priority 1996, dated 2004)
